Counter-ions that a name gives are not always drawn.
Columns and labels:
[1] = Solubility in aqueous solvents, buffers and cell-culture medium; assay type: physicochemical; conditions: neat water or saline, PBS, DMEM with 10% FBS; read-out: soluble at a concentration
[2] = In vitro stability (photostability) in solution, kinetic fluorescence; assay type: physicochemical; conditions: phosphate buffer, 100 nM, 37° C., ex 490 nm / em 520 nm
Experimental: HYPDX-4 was dissolved in phosphate buffer at a concentration of 100 nM and fluorescence was monitored at excitation maximum 490 nm and emission at 520 nm.

R28 cells [3] = assay: In vitro hypoxia-induced HYPDX-4-dependent fluorescence assay, R28 cells; assay type: cell-based, rat
Experimental: (§1) ARPE-19 cells were cultured in DMEM/F12 supplemented with 10% Fetal Bovine Serum, 1× GlutaMAX, and 1× Gentamicin/Amphotericin B. MIO-M1 and R28 cells were cultured in low glucose DMEM supplemented with 10% Fetal Bovine Serum, 1× GlutaMAX, and 1× Penicillin-Streptomycin. Cells were maintained in a humidified environment with 5% CO2 at 37° C. unless otherwise noted. The cells were cultured in 96 microwell plates, with HYPDX-4 concentrations ranging from 10 to 100 μM in complete medium, or 100 μM pimonidazole hydrochloride in complete medium. To establish a hypoxic environment, the cells were placed into a humidified hypoxic chamber and flushed with a mixture of 95% N2 and 5% CO2, at a flow rate of 20 L/min for 5 min according to manufacturer instructions. The chamber was clamped and placed at 37° C. for the duration of the treatment. The oxygen level was monitored using the Traceable™ Dissolved Oxygen Meter Pen (Fisher Scientific; Pittsburg, Pa.). […]
(§2) ARPE-19, MIO-M1 were seeded at 20,000 and R28 at 15,000 cells per well, respectively, in a 96-well black plate with a clear bottom. […] Fluorescence intensity was measured ([…]: 490 nm, Emission: 520 nm) using a microplate reader (Biotek; Winooski, Vt.).

ARPE-19 cells = assay: In vitro hypoxia-induced HYPDX-4-dependent fluorescence assay, ARPE-19 cells; assay type: cell-based, human; conditions: ARPE-19, 0.1% oxygen, 10 μM to 100 μM
Experimental: as §1, §2

MIO-M1 cells [4] = assay: In vitro hypoxia-induced HYPDX-4-dependent fluorescence assay, MIO-M1 cells; assay type: cell-based, human; conditions: MIO-M1, 0.1% oxygen, 10 μM to 100 μM
Experimental: as §1, §2

R28 cells [5] = assay: In vitro imaging of R28 cells using HYPDX-4; assay type: cell-based, rat
Experimental: R28 cells were seeded at a density of 45,000 cells per well in 3 wells of 4-well chamber slides. When cells were 90% confluent, 2 wells were treated with HYPDX-4 in complete medium, and one well was treated with pimonidazole hydrochloride diluted in complete medium. The cells were cultured in hypoxia or normoxia for 4 hours. Cells were washed 3 times with HBSS, fixed with 10% neutral buffered formalin (NBF) for 10 minutes at room temperature, washed 3 times with TBS and mounted with Prolong Gold with DAPI mounting media. Pimonidazole-adducts were immunostained according to manufacturer's protocol. HYPDX-4 dependent fluorescence images were taken using an epifluorescence microscope.

[6] = test system: retinal hypoxia, oxygen-induced retinopathy (OIR) mice; assay: Imaging of retinal hypoxia in the mouse OIR model; assay type: in vivo
Experimental: Mouse pups and their dams were placed in 75% oxygen from P7 to P12 according to the OIR oxygen treatment protocol.^27 On P12, litters were removed to room air and after 2 hours, HYPDX-4 (60 mg/kg in PBS) was administered by intraperitoneal injection. Twenty-four hours post-injection, in vivo HYPDX-4-dependent fluorescence imaging was performed. Briefly, mice were anesthetized with ketamine/xylazine, eyes were dilated with 1% tropicamide and placed on a warm platform, and fluorescent and bright field fundus images were acquired using the Micron IV retinal-imaging system (Phoenix Research Laboratories; Pleasanton, Calif.). Then, ex vivo imaging of HYPDX-4 dependent fluorescence was performed. The mice were sacrificed, enucleated, and the globes were fixed in 10% neutral buffered formalin (NBF). Retinas were dissected and stained directly with Alexa Fluor 647-conjugated isolectin B4 then flat-mounted on a microscope slide with Prolong Gold mounting medium (Life Technologies, Grand Island, N.Y.). Images were captured using an epifluorescence ‘Nikon Eclipse Ti-E’ inverted microscope (Melville, N.Y.).
Some mice received intraperitoneal injections of pimonidazole hydrochloride at a concentration of 60 mg/kg body weight two hours after removal to the room air; they were sacrificed and enucleated one hour later. The globes were fixed in 10% NBF for 2 hours; retinas were dissected and washed with tris-buffered saline (TBS), then they were blocked/permeabilized in 10% donkey serum with 1% Triton X-100/0.05% Tween 20 in TBS for 6 hours, and stained with an antibody against pimonidazole-adducts followed by the secondary anti-rabbit IgG conjugated to Alexa Fluor 647- and Alexa Fluor 488-conjugated isolectin B4. The retinas were mounted on microscope slides with Prolong Gold mounting medium. Ex vivo images were captured using an epifluorescence ‘Nikon Eclipse Ti-E’ inverted microscope.

[7] = test system: retinal hypoxia, laser-induced retinal vein occlusion (RVO) mice; assay: Imaging of retinal hypoxia in the mouse RVO model; assay type: in vivo; conditions: for pattern of retinal hypoxia image in RVO retina: HYPDX-4-dependent imaging versus pimonidazole-adduct immunostaining, 60 mg/kg i.p.
Experimental: Laser-induced retinal vein occlusion was performed as previously described.^31 Briefly, C57BL/6 female mice were anesthetized by intraperitoneal injection of ketamine/xylazine and the eyes were dilated using 1% tropicamide. A phosphate buffered solution of 39.31 mM rose bengal (4,5,6,7-tetrachloro-2′,4′,5′,7′-tetraiodo-fluorescein disodium salt, certified purity, 95%; Sigma, St. Louis, Mo.) was sterilized by passage through a 0.22-μm filter, and tail vein injected at a dose of 40 mg/kg. An argon laser photocoagulator (green light) mounted on a slit-lamp (Space Coast Laser Inc. Palm Bay, Fla.) was used to create retinal vein-occlusion (50-μm spot size, 1-second duration, 50 mW). Three laser applications were required to completely stop the blood flow as determined by observing the fundus image with a slit-lamp microscope. In each fundus, only one or two veins was/were photocoagulated to create retinal ischemia. Two hours post-RVO, mice were divided into two groups and received intraperitoneal injection of the HYPDX-4 (60 mg/kg body weight) or pimonidazole hydrochloride (60 mg/kg body weight). Twenty-two hours post-injection of HYPDX-4, in vivo HYPDX-4 dependent fluorescence imaging was performed. The mice were anesthetized with ketamine/xylazine, dilated with 1% tropicamide, and placed on a warm platform; TRITC-Dextran 500 (Sigma, St. Louis, Mo.) was injected systemically at a dose of 20 mg/kg; and fluorescent and bright field fundus images were acquired using the Micron IV retinal-imaging system. Mice were sacrificed, enucleated and the globes were fixed in 10% NBF. HYPDX-4-dependent fluorescence was imaged ex vivo as previously described in the OIR section. For the pimonidazole hydrochloride-injected group, the animals were sacrificed one hour after injection, enucleated and the globes were fixed in 10% NBF. The retinas were processes and ex vivo images were captured as described above for mouse OIR.

retina of RA mice = assay: Electroretinography (ERG) measurements; assay type: in vivo, mouse; conditions: 100 mg/kg systemic, dark-adapted mice, 7 days post administration, various flash intensities
Experimental: ERG measurements were performed according to previously published methods.^32,33 Briefly, ERG analysis was performed on mice injected with HYPDX-4 (100 mg/kg) at one week post-injection. Animals were dark adapted overnight, anesthetized with ketamine/xylazine, dilated with 1% tropicamide, and placed on a warm platform within the Ganzfeld dome of a Diagnosys LLC Espion Electrophysiology system (Lowell, Mass., USA). Mice were exposed to flashes of light ranging from −4 to 2 log cd·s/m^2 and the amplitudes of a-wave and b-wave were measured from baseline to peak. The amplitude of the a-wave and b-wave were plotted as a function of luminance.

[8] = test system: retinal cross sections from RA mice; assay: TUNEL assay in retinal cross sections; assay type: in vivo, mouse; conditions: retinal cross sections from treated mice, DNase I positive control
Experimental: TUNEL assays were performed using Click-iT in situ apoptosis detection kit (Life Technology, USA). The mouse eyes were enucleated and fixed by immersing in 10% NBF for 25 minutes at 4° C. Then, they were fresh frozen in 30% sucrose and embedded in TissueTec OCT for cryosectioning (7 μm sections). The retinal cross-sections were then stained for fragmented DNA by incorporating alkyne-modified EdUTP nucleotide followed by detection with Alexafluor 647 azide in apoptotic cells. Retinal cross-sections were treated with DNase I as the positive control.

R28 cells [9] = assay: Cell viability assay (BrdU incorporation), R28 cells; assay type: cell-based, rat; conditions: R28, 0-100 μM, 24 h
Experimental: (§3) Retinal cell-lines were treated with HYPDX-4 (100 μM) and the viability was measured using the bromodeoxyUridine (BrdU) incorporation assay according to the manufacturers protocol. Briefly, retinal cells were seeded in a 96-well plate for twenty four hours and serum starved for 6 hours. Then, cells were treated with HYPDX-4 and vehicle controls diluted in complete media and allowed to incubate for 24 h. Four hours prior to the end of the incubation, BrdU was added at a concentration of 10 μM and incorporation of BrdU was quantified by ELISA with the BrdU cell viability ELISA kit (Exalpha Biologicals; Shirley, Mass.).

MIO-M1 cells [10] = assay: Cell viability assay (BrdU incorporation), MIO-M1 cells; assay type: cell-based, human; conditions: MIO-M1, 0-100 μM, 24 h
Experimental: as §3

[11] = test system: human Müller cells (MIO-M1); assay: Pimonidazole-adduct immunodetection of hypoxia in MIO-M1 cells; assay type: cell-based; conditions: MIO-M1, 100 μM, 4 hours
Experimental: ARPE-19 cells were cultured in DMEM/F12 supplemented with 10% Fetal Bovine Serum, 1× GlutaMAX, and 1× Gentamicin/Amphotericin B. MIO-M1 and R28 cells were cultured in low glucose DMEM supplemented with 10% Fetal Bovine Serum, 1× GlutaMAX, and 1× Penicillin-Streptomycin. Cells were maintained in a humidified environment with 5% CO2 at 37° C. unless otherwise noted. The cells were cultured in 96 microwell plates, with HYPDX-4 concentrations ranging from 10 to 100 μM in complete medium, or 100 μM pimonidazole hydrochloride in complete medium. To establish a hypoxic environment, the cells were placed into a humidified hypoxic chamber and flushed with a mixture of 95% N2 and 5% CO2, at a flow rate of 20 L/min for 5 min according to manufacturer instructions. The chamber was clamped and placed at 37° C. for the duration of the treatment. The oxygen level was monitored using the Traceable™ Dissolved Oxygen Meter Pen (Fisher Scientific; Pittsburg, Pa.). To confirm induction of hypoxia, cells were treated with 100 μM pimonidazole hydrochloride diluted in complete medium, subjected to hypoxia or normoxia for 4 hours and immunostained for pimonidazole-adducts according to manufacturer's protocol.

Experimental for physchem: A mixture of Octanol (500 uL) and water (500 uL) was added to HYPDX-4 (173 μg), or Pimonidazole Free base (742 μg) or Pimonidazole HCl (1 mL, 50 mg/mL) in an eppendorf tube and gently mixed in a rotator for 2 days. The aqueous and octanol layers were separated and the Optical Density (OD) was measured in microplate spectrophotometer instrument. The amount of HYPDX-4, Pimonidazole Free base and Pimonidazole HCl was calculated from the standard curve.

CCN1/C(=C/C=C/C=C/C2=[N+](CCCCS(=O)(=O)[O-])c3ccc4ccccc4c3C2(C)C)C(C)(C)c2cc(CC(=O)NCC3CCN(CC(O)Cn4ccnc4[N+](=O)[O-])CC3)ccc21 (stereo not drawn) [HYPDX-4]
solubility [1]: ≥ 100 µM | photostability in solution, duration [2]: at least 24 hours | HYPDX-4-dependent fluorescence versus oxygen concentration (R28 cells [3]; 100 μM, oxygen 0.1% to 20.9%, 4 hours): maximal at 0.1% oxygen | HYPDX-4 dependent fluorescence, dose dependence (R28 cells [3]; R28, 0.1% oxygen, 10 μM to 100 μM): optimal signal to noise ratios at the 100 μM dose | HYPDX-4 dependent fluorescence, dose dependence (ARPE-19 cells): optimal signal to noise ratios at the 100 μM dose | HYPDX-4 dependent fluorescence, dose dependence (MIO-M1 cells [4]): optimal signal to noise ratios at the 100 μM dose | cellular fluorescence imaging, hypoxic cells (R28 cells [5]; R28, 100 μM, 0.1% oxygen, 4 hours): Hypoxia-specific, HYPDX-4-dependent fluorescence activity | cellular fluorescence imaging, normoxic cells (R28 cells [5]; R28, normoxia): Minimal | HYPDX-4-dependent fluorescence in OIR retina ([6]; OIR pups, 60 mg/kg i.p. on P12, imaging 24 hours post-injection, central avascular retina): detected in vivo as well as ex vivo | HYPDX-4 dependent fluorescence in room air control retina ([6]; age matched RA (P13) control pups, same treatment): undetectable | retinal layers showing HYPDX-4-dependent fluorescence (hypoxia), cross sections ([6]; ex vivo retinal transverse sections from OIR pups): inner plexiform and inner nuclear layers | HYPDX-4-dependent fluorescence in RVO retina ([7]; 60 mg/kg i.p. two hours after occlusion, imaging 22 hours post-injection): detected downstream and laterally from the occlusion | pattern of retinal hypoxia image in RVO retina [7]: more confluent image of retinal hypoxia | ERG mean a-wave amplitudes versus vehicle (PBS) and sodium fluorescein (retina of RA mice): no significant changes in mean a-wave amplitudes | ERG mean b-wave amplitudes versus vehicle (PBS) and sodium fluorescein (retina of RA mice): no significant changes in mean b-wave amplitudes | retinal cell apoptosis (TUNEL) [8]: No apoptosis was observed | cell viability (BrdU incorporation) (R28 cells [9]): did not affect cell viability | cell viability (BrdU incorporation) (MIO-M1 cells [10]): did not affect cell viability | logP at 2 days (physchem): -2.58

O=[N+]([O-])c1nccn1CC(O)CN1CCCCC1 (stereo not drawn) [Pimonidazole HCl, reference compound]
pimonidazole immunostaining of retinal hypoxia in OIR pups ([6]; 60 mg/kg i.p., ex vivo, sacrificed one hour later): confirmed | pattern of retinal hypoxia image in RVO retina [7]: patchy | pimonidazole-adduct fluorescence, hypoxic cells ([11]; hypoxia): Significant fluorescence enhancement | pimonidazole-adduct fluorescence, normoxic cells ([11]; normoxia): minimal fluorescence signal | logP at 2 days (physchem): -2.06
